IC50 and stability in solution data for five molecules are collected here from patent publication US5935995A, “Prodrugs for the therapy of tumors and inflammatory disorders” (Heochst Aktiengesellschaft, priority 1996, dated 1999).

A word on the IC50: it is the concentration at which inhibition is half-maximal.

For one series, the system named is LoVo cells. Description: Cytotoxicity on LoVo tumor cells in the presence and absence of β-glucuronidase (MTT). It counts as cell-based.
A short description of series [1]: Stability in solution in anhydrous DMSO. It counts as physicochemical. The procedure: The prodrug F 373 is stable in solution in anhydrous DMSO. To investigate the cleavability, […] of F 373 solution (5 mg/ml in DMSO) were treated with 180 ml of 0.02 M phosphate buffer pH 7.2 and 10 ml of E. coli β-glucuronidase (Sigma) (330 mg/ml) and the mixture was incubated at 37° C. 25 ml batches were diluted with 225 ml of 0.1 M phosphate buffer pH 3.0 (85%) and acetonitrile (15%) and immediately analyzed with the aid of the following HPLC system.

Where two headings read alike, the source gives them in different places. Some results are limits rather than exact numbers.

Take `CN(C(=O)OCCN(CCO)c1nc(N2CCCCC2)c2nc(N(CCO)CCO)nc(N3CCCCC3)c2n1)c1cc([N+](=O)[O-])ccc1O[C@@H]1O[C@H](C(=O)O)[C@@H](O)[C@H](O)[C@H]1O` [F 392]: the IC50 is 49.5 µM with LoVo cells (Homo sapiens, LoVo cells, 65 h, with β-glucuronidase (50 mg/mil final concentration), read-out: IC50 with β-gluc.) and > 400 µM in the series on LoVo cells (Homo sapiens, LoVo cells, 65 h, without β-glucuronidase, read-out: IC50 without β-gluc.). For `C=C[C@H]1C[N@@]2CC[C@H]1C[C@H]2[C@H](O)c1ccnc2ccc(OC)cc12` [quinine, reference compound], the IC50 in the series on LoVo cells (Homo sapiens, LoVo, read-out: IC50 of the toxic compound tested alone) is 103 µM. Turning to `CN(C(=O)Oc1ccc(N(CCCl)CCCl)cc1)c1cc([N+](=O)[O-])ccc1O[C@@H]1O[C@H](C(=O)O)[C@@H](O)[C@H](O)[C@H]1O` [F 373, 2-[N-Methyl-N-[4-(N,N'-bis(2-chloroethyl)amino)phenyloxycarbonyl]-amino]-4-nitrophenyl-β-D-glucuronic acid], the stability in solution entry in series [1] is recorded as “stable”. For the same molecule, the half-inhibitory concentration (IC50) with LoVo cells (read-out: IC50 with β-gluc.) is 6.3 µM; with LoVo cells (read-out: IC50 without β-gluc.), > 500 µM.

As to `C=CC1CN2CCC1CC2C(OC(=O)N(C)c1cc([N+](=O)[O-])ccc1OC1OC(C(=O)O)C(O)C(O)C1O)c1ccnc2ccc(OC)cc12` (stereo not drawn) [F 391], the IC50 in the series with LoVo cells (Homo sapiens, LoVo, 65 h, read-out: IC50 with β-gluc.) is 113 µM; with LoVo cells (Homo sapiens, LoVo, 65 h, read-out: IC50 without β-gluc.) it was > 400 µM. With `OCCN(CCO)c1nc(N2CCCCC2)c2nc(N(CCO)CCO)nc(N3CCCCC3)c2n1` [dipyridamole, reference compound], in the series on LoVo cells (Homo sapiens, LoVo, parent toxic compound tested alone, read-out: IC50 of the toxic compound tested alone), the IC50 worked out at 43 µM.
